Measurements taken from patent publication US9474790B2, “Stable, protracted GLP-1/glucagon receptor co-agonists for medical use” (Novo Nordisk A/S, priority 2013, dated 2016).
Numbered stars: 1 amine (or outer) side, 2 acyl side, 3 side chain; on linkers, the order of the positions; unused ones are H or OH. Square brackets hold non-standard residues; d marks the D form. Side chains are listed from the residue outwards. Peptide text beside a SMILES is read from it. * marks the point of attachment. C18 diacid = O=C(O)CCCCCCCCCCCCCCCCC(=O)*; γGlu = O=C(O)[C@H](CCC(=O)[*:2])N[*:1]; Ac4c = NC1(C(=O)O)CCC1; AEEA = NCCOCCOCC(=O)O; Aib = CC(C)(N)C(=O)O

Legend:
in vivo = test: in vivo; set-up: species or system c57/BL6 mice; conditions: male, c57/BL6, mouse, sc, 10 nmol/kg
Procedure: The purpose of this assay was to assess the pharmocokinetic profiles of the glucagon derivatives of the invention in mice. The pharmacokinetic profile of glucagon-GLP1 co-agonists was tested in normal male c57/BL6 mice (approximately body weight: 30 grams), in a sparse sampling design with for example 3 mice represented at each time point (for example: t=0.25, 0.5, 1, 3, 6, 10, 24, 30 and 48 hours). The compound was dosed as a single subcutaneous dose of 10 nmol/kg at t=0. The plasma levels of the glucagon-GLP1 co-agonist compounds were determined using an ELISA/LOCI assay (see Example 80 herein). Pharmacokinetic calculations such as half-life (T1/2) maximum concentration (Cmax) and time for maximum concentration (Tmax) of the compounds were determined using the PC based software, Phoenix (WinNonLin version 6.3 from Pharsight, Certara). Samples were analysed for peptide levels using Luminescence Oxygen Channeling Immunoassay (LOCI). The donor beads were coated with streptavidin. Acceptor beads are conjugated with a monoclonal antibody specific to gGlu in the linker (NN454-1F31) while the second monoclonal antibody (1F120) specific for glucagon was biotinylated. Three reactants were combined with the analyte and formed a two-sited immuno-complex. Illumination of the complex released singlet oxygen atoms from the donor beads. They were channeled into the acceptor beads and triggered chemiluminescence which was measured in the EnVision plate reader. The amount of emitted light is proportional to the concentration of peptide. One μL sample/calibrator/control was applied to the wells of 384-well LOCI plates followed by a 15 μL mixture of the antibody-coated acceptor beads (0.5 μg/well) and the biotinylated antibody. The plates were incubated over night at 21-22° C. Following incubation, 30 μL of the streptavidin-coated donorbeads (2 μg/well) was added to each well and incubated for 30 minutes at 21-22° C. The plates were read in an Envision plate reader at 21-22° C. with a filter having a bandwidth of 520-645 nm after excitation by a 680 nm laser. The total measurement time per well was 210 ms including a 70 ms excitation time.

human GLP-1 receptor = target: T1, human GLP-1 receptor (Homo sapiens, UniProt P43220); test: GLP-1 receptor potency, CRE luciferase reporter gene assay in BHK cells; format: cell-based; conditions: BHK cells expressing human GLP-1 receptor, read-out: EC50 GLP-1R
T1 construct: expressed in transfected cells; host or cells: BHK cells (parent BHKTS13), clone FCW467-12A/KZ10-1, with CRE luciferase
Procedure, shortened: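 Potency as cAMP-driven firefly luciferase signal after 3 h, 37° C exposure to 10-fold dilutions (final 1×10EE-13–1×10EE-6 M). Stable hGLP-1R/CRE-luc BHK clone, 5×10EE3 cells/well, medium containing 2% ovalbumin and 0.2% Pluronic F-68; EC50 (pM) from variable-slope non-linear regression.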

human glucagon receptor = target: T2, human glucagon receptor (Homo sapiens, UniProt P47871); test: Glucagon receptor potency, CRE luciferase reporter gene assay in BHK cells; format: cell-based; conditions: BHK cells expressing human glucagon receptor, read-out: EC50 GlucR
T2 construct: expressed in transfected cells; host or cells: BHK cells (parent BHK570, CRE luciferase clone BHK/KZ10-20-48), clone pLJ6'-4-25
Procedure, shortened: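 EC50 (pM) comes from a four-parameter fit of luciferase luminescence after 3 h at 37 °C with compound at final 1×10EE-13–1×10EE-6 M. Cells: BHK570-derived line carrying human glucagon receptor plus CRE-luciferase, 5×10EE3/well, in assay medium with 2% ovalbumin, 0.2% Pluronic F-68.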

T1 sequence (P43220 24-463): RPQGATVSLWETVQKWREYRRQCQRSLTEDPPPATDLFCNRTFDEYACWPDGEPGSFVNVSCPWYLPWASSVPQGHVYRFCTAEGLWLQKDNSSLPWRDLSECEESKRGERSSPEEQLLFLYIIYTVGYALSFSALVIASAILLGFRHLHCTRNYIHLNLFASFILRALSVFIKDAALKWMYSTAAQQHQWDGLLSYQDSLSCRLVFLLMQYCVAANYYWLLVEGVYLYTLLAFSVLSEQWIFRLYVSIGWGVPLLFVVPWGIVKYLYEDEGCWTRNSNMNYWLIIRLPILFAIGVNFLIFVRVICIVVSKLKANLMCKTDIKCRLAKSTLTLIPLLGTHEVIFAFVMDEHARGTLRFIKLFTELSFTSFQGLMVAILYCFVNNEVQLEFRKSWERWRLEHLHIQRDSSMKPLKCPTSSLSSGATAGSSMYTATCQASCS
T2 sequence (P47871 26-477): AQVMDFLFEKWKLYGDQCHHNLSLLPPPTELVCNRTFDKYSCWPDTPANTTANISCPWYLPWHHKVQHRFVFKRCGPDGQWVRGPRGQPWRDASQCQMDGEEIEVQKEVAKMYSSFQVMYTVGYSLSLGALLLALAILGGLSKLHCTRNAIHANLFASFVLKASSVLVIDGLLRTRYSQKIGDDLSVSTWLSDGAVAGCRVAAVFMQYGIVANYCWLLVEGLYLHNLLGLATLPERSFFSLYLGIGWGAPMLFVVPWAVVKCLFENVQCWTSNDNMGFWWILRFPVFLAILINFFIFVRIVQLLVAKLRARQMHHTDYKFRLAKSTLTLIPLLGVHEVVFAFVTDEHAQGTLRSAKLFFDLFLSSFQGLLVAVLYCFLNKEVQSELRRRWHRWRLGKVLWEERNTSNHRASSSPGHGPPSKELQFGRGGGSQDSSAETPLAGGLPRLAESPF

Cmax (in vivo) [nM] | Tmax (in vivo) [h] | half-life (in vivo) [h] | EC50 (human GLP-1 receptor) [pM] | EC50 (human glucagon receptor) [pM] | SMILES
45 | 3 | 23 |  |  | CC(C)C[C@H](NC(=O)[C@H](CC(C)C)NC(=O)[C@H](Cc1c[nH]c2ccccc12)NC(=O)[C@H](CCC(N)=O)NC(=O)[C@@H](NC(=O)[C@H](Cc1ccccc1)NC(=O)[C@H](CCC(=O)O)NC(=O)[C@H](CCC(N)=O)NC(=O)[C@H](C)NC(=O)[C@H](C)NC(=O)[C@H](CCCCN)NC(=O)[C@H](CO)NC(=O)[C@H](CC(=O)O)NC(=O)[C@H](CC(C)C)NC(=O)[C@H](Cc1ccc(O)cc1)NC(=O)[C@H](CCCCN)NC(=O)[C@H](CO)NC(=O)[C@H](CC(C)C)NC(=O)[C@H](CC(=O)O)NC(=O)[C@H](CO)NC(=O)[C@@H](NC(=O)[C@H](Cc1ccccc1)NC(=O)[C@@H](NC(=O)CNC(=O)[C@H](CCC(N)=O)NC(=O)C(C)(C)NC(=O)[C@@H](N)Cc1c[nH]cn1)[C@@H](C)O)[C@@H](C)O)C(C)C)C(=O)N[C@@H](CC(N)=O)C(=O)N[C@@H](CCCCNC(=O)CC[C@H](NC(=O)CC[C@H](NC(=O)COCCOCCNC(=O)COCCOCCNC(=O)CC[C@H](NC(=O)CCCCCCCCCCCCCCCCC(=O)O)C(=O)O)C(=O)O)C(=O)O)C(N)=O [Example 8, N^ε29-[(4S)-4-carboxy-4-[[(4S)-4-carboxy-4-[[2-[2-[2-[[2-[2-[2-[[(4S)-4-carboxy-4-(17-carboxyheptadecanoylamino)butanoyl]amino]ethoxy]ethoxy]acetyl]amino]ethoxy]ethoxy]acetyl]amino]butanoyl]amino]butanoyl]-[Aib2,Leu10,Lys17,Ala18,Glu21,Leu27,Lys29]-Glucagon amide] (H-H[Aib]QGTFTSDLSKYLDSKAAQEFVQWLLNK([γGlu-γGlu-AEEA-AEEA-γGlu-C18 diacid])-NH2; N-terminus assumed)
24.4 | 3 | 14 | 14.7 |  | CC(C)C[C@H](NC(=O)[C@H](CC(C)C)NC(=O)[C@H](Cc1c[nH]c2ccccc12)NC(=O)[C@H](CCC(N)=O)NC(=O)[C@@H](NC(=O)[C@H](Cc1ccccc1)NC(=O)[C@H](CCC(=O)O)NC(=O)[C@H](CCCNC(=N)N)NC(=O)[C@H](C)NC(=O)[C@H](CCCNC(=N)N)NC(=O)[C@H](CCCNC(=N)N)NC(=O)[C@H](CO)NC(=O)[C@H](CC(=O)O)NC(=O)[C@H](CC(C)C)NC(=O)[C@H](Cc1ccc(O)cc1)NC(=O)[C@H](CCCCN)NC(=O)[C@H](CO)NC(=O)[C@H](CC(C)C)NC(=O)[C@H](CC(=O)O)NC(=O)[C@H](CO)NC(=O)[C@@H](NC(=O)[C@H](Cc1ccccc1)NC(=O)[C@@H](NC(=O)CNC(=O)[C@H](CCC(N)=O)NC(=O)C(C)(C)NC(=O)[C@@H](N)Cc1c[nH]cn1)[C@@H](C)O)[C@@H](C)O)C(C)C)C(=O)N[C@@H](CC(N)=O)C(=O)N[C@@H](CCCCNC(=O)CC[C@H](NC(=O)CC[C@H](NC(=O)COCCOCCNC(=O)COCCOCCNC(=O)CC[C@H](NC(=O)CCCCCCCCCCCCCCCCC(=O)O)C(=O)O)C(=O)O)C(=O)O)C(N)=O [Example 12, N^ε29-[(4S)-4-carboxy-4-[[(4S)-4-carboxy-4-[[2-[2-[2-[[2-[2-[2-[[(4S)-4-carboxy-4-(17-carboxyheptadecanoylamino)butanoyl]amino]ethoxy]ethoxy]acetyl]amino]ethoxy]ethoxy]acetyl]amino]butanoyl]amino]butanoyl]-[Aib2,Leu10,Arg20,Glu21,Leu27,Lys29]-Glucagon amide] (H-H[Aib]QGTFTSDLSKYLDSRRAREFVQWLLNK([γGlu-γGlu-AEEA-AEEA-γGlu-C18 diacid])-NH2)
 |  |  | 7 | 5 | CC(C)C[C@H](NC(=O)[C@H](Cc1ccc(O)cc1)NC(=O)[C@H](CCCCN)NC(=O)[C@H](CO)NC(=O)[C@H](CC(C)C)NC(=O)[C@H](CC(=O)O)NC(=O)[C@H](CO)NC(=O)[C@@H](NC(=O)[C@H](Cc1ccccc1)NC(=O)[C@@H](NC(=O)CNC(=O)[C@H](CCC(N)=O)NC(=O)C1(NC(=O)[C@@H](N)Cc2c[nH]cn2)CCC1)[C@@H](C)O)[C@@H](C)O)C(=O)N[C@@H](CCC(=O)O)C(=O)N[C@@H](CO)C(=O)N[C@@H](CCCCN)C(=O)N[C@@H](CCCNC(=N)N)C(=O)N[C@@H](C)C(=O)N[C@@H](CCCNC(=N)N)C(=O)N[C@@H](CCC(=O)O)C(=O)N[C@@H](Cc1ccccc1)C(=O)N[C@H](C(=O)N[C@@H](CCC(N)=O)C(=O)N[C@@H](Cc1c[nH]c2ccccc12)C(=O)N[C@@H](CC(C)C)C(=O)N[C@@H](CC(C)C)C(=O)N[C@@H](CCCCNC(=O)CC[C@H](NC(=O)CC[C@H](NC(=O)[C@H](CO)NC(=O)[C@H](CCC(=O)O)NC(=O)[C@H](CO)NC(=O)CC[C@H](NC(=O)CC[C@H](NC(=O)CCCCCCCCCCCCCCCCC(=O)O)C(=O)O)C(=O)O)C(=O)O)C(=O)O)C(=O)N[C@H](C(N)=O)[C@@H](C)O)C(C)C [Example 68, N^ε28-[(4S)-4-carboxy-4-[[(4S)-4-carboxy-4-[[(2S)-2-[[(2S)-4-carboxy-2-[[(2S)-2-[[(4S)-4-carboxy-4-[[(4S)-4-carboxy-4-(17-carboxyheptadecanoylamino)butanoyl]amino]butanoyl]amino]-3-hydroxypropanoyl]amino]butanoyl]amino]-3-hydroxypropanoyl]amino]butanoyl]amino]butanoyl]-[Acb2,Leu10,Glu15,Lys17,Arg20,Glu21,Leu27,Lys28]-Glucagon amide] (H-H[Ac4c]QGTFTSDLSKYLESKRAREFVQWLLK([γGlu-γGlu-Ser-Glu-Ser-γGlu-γGlu-C18 diacid])T-NH2; N-terminus assumed)
